Earlier results on one molecule are cited in patent US20220273652A1, “PHARMACEUTICAL COMPOSITION COMPRISING HMG-COA REDUCTASE INHIBITORS AND FENOFIBRATE” (INTAS PHARMACEUTICALS LTD., priority 2019, published 2022).

For the data set, the system named is cytochrome P450. The following applies: human hepatocytes.

SMILES strings stand for the structures.

As for `CC(C)c1nc(N(C)S(C)(=O)=O)nc(-c2ccc(F)cc2)c1/C=C/[C@@H](O)C[C@@H](O)CC(=O)O` [rosuvastatin, bis[(E)-7-[4(4-fluorophenyl)-6-isopropyl-2-[methyl(methylsulfonyl)amino]-pyrimidin-5-yl](3R,5S)-3,5dihydroxyhept-6-enoic acid]], the “Substrate for cytochrome P450-based metabolism” value was “poor substrate”.
